Experimental data taken from patent publication US8663658B2, “Revaprazan-containing solid dispersion and process for the preparation thereof” (Yuhan Corporation, priority 2006, dated 2014).
≈ marks a conversion by molar mass, not a printed value. Where two headings read alike, the source gives them in different places.

Experiments:
[1] = Solubility of revaprazan-containing solid dispersion in purified water; assay type: physicochemical; details: thermodynamic from solid, 25° C., solid dispersion containing 1 g revaprazan in 50 ml, stirred up to 6 hours, UV 270 nm
Experimental: Solubility of a revaprazan-containing solid dispersion was measured in purified water. A solid dispersion containing 1 g of revaprazan was added to a beaker containing 50 ml of purified water, which was then strongly stirred using a magnetic stirrer at 25° C. in a water bath for 6 hours. After 1, 2, and 6 hours, each sample was collected and filtered using a 0.45 μm filter. The filtrate was diluted with methanol having such an amount that absorbance of the filtrate is in the range from 0.2 to 1.0. Then, absorbance of the diluted filtrate was measured at 270 nm using a UV spectrophotometer (Agilent 8453, Agilent technologies, USA). From the obtained absorbance value, concentrations of revaprazan were obtained using a standard curve.
About 20 mg of revaprazan standard was dissolved in methanol until the total volume of the solution reached 10 ml. 1 ml of the resultant solution was added to a 100 ml flask and then purified water was added thereto to obtain a standard stock solution. The standard stock solution was diluted with purified water to obtain 2 μg/ml, 5 μg/ml, 8 μg/ml, and 10 μg/ml of standard solution. Each absorbance of the standard solutions was measured at an absorption maximum wavelength of 270 nm to obtain a standard curve. The standard curve was moderately linear passing through almost (0.0) (coefficient of correlation r^2>0.98).

[2] = Adhesiveness and agglutination test (Carr's index from bulk and tapped density); assay type: physicochemical
Experimental: The bulk density and tapped density of revaprazan powder and the surface-modified solid dispersions prepared according to Examples 3 and 6 were measured and their Carr's indexes were obtained in order to measure flowability thereof. About 3 g of a solid dispersion was carefully added to a plastic measuring cylinder and the volume thereof was measured to obtain the bulk density. And then, this was subjected to tapping 3,000 times using a tapped density meter to measure the volume and the tapped density was obtained. From the obtained bulk density and tapped density, Carr's index was calculated in order to evaluate flowability.

[3] = background art; cited from earlier work

solubility [1]: 173 µg/mL (≈ 477 µM) | Carr's index [2]: ≥ 40% | Carr's index ([2]; from bulk density and tapped density (3,000 taps), flowability): 41.2
SMILES: Cc1nc(Nc2ccc(F)cc2)nc(N2CCc3ccccc3C2C)c1C (stereo not shown) [Revaprazan powder, 5,6-dimethyl-2-(4-fluorophenylamino)-4-(1-methyl-1,2,3,4-tetrahydroisoquinolin-2-yl)pyrimidine]
water-solubility [3]: less than 0.2 mg/mL
